Source: PMC9481563, “Structural insights into the pSer/pThr dependent regulation of the SHP2 tyrosine phosphatase in insulin and CD28 signaling” (Nature Communications, 2022)
Residue numbers refer to the chain shown, from its start.

Tests used:
[1] = target: T1, inactive SHP2 catalytic domain Flapmut (H426F) (Homo sapiens, UniProt Q06124, C459S/H426F); experiment: Fluorescence polarization titrations, SHP2 Flapmut; type: binding; conditions: competitive FP titration vs CF-ppIRS1 100 nM, protein fixed; n = 3 technical replicates
T1 construct: SHP2 H425F (Flapmut); 219-528 + C459S; His6 (N); made in house; host or cells: E. coli BL21 (DE3)
T1 sequence (Q06124 219-528 H426F/C459S): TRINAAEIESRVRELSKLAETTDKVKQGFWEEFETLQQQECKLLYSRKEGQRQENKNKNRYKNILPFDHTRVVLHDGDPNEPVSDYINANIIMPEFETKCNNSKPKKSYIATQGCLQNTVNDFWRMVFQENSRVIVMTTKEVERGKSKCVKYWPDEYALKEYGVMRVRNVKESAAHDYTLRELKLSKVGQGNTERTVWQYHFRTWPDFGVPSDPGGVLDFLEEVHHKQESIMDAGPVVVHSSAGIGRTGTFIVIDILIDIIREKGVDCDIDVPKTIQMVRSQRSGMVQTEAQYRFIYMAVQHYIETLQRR
Source text: (§1) The two SH2 domains of PI3KR1 (UniProt P27986; nSH2: 321−433 cSH2: 614–724) were cloned from HEK293T cDNA pool, and subsequently ligated into a modified pET vector encoding maltose binding protein (MBP) tag on the N-terminal and a hexa-His tag on the C-terminal end of the construct. Similarly, the catalytic, tyrosine phosphatase domains of PTPRε (P23469 first domain: 107–399) and PTP1B (P18031; 1–229) were cloned from a HEK293T cDNA pool, and inserted into a pBH4 vector encoding an N-terminal His6 tag (for the final binding experiments, an MBP-tagged version of PTPRε was employed). […] Surface mutants of SHP2 were constructed from the SHP2-C459S plasmid, using the QuickChange protocol. The D425A and H426A catalytic site mutants and all enzymatically active surface mutants were generated similarly, but from the plasmid encoding the wild-type catalytic domain of SHP2. Wild-type C-terminal FLAG-tagged human IRS1 was cloned between HindIII-NotI sites of pcDNA3.1(+) vector (#V79020 Invitrogen, Waltham MA USA). Ser/Ala mutant IRS1 was generated by replacing the region of S616/S636/S666/S736 positions with a cassette carrying S616A/S636A/S666A/S736A mutations. All constructs were validated by complete Sanger sequencing before protein expression and purification. The oligonucleotide sequences used are shown on Supplementary table 4.
(§2) Fluorescence polarization (FP) assays were performed as follows: In direct titration experiments, protein concentration was varied in an 1/2 or 2/3 dilution series (90 µl protein+ 45 µl mix), while concentration of the reporter peptide (CF-ppIRS1) was kept constant at 100 nM. In competitive titrations, the labelled CF-ppIRS1 peptide and protein were both fixed (at 50–80% saturation) and the unlabelled competitor peptide concentration was varied. Fluorescence polarization was always measured in triplicates, on black Corning low volume round bottom 384-well plates (with 10 ul volumes), using a BioTek Cytatation 5 reader, with the green fluorescent protein (GFP) cube filter set (ex: 485/20, em: 528/20, gain: 50, height: 7.5). Fluorescence polarization data was evaluated on Origin 2018. The dissociation constants (Kd) were determined by using the appropriate quadratic and cubic equations inserted as a user-defined function and applying nonlinear fit until convergence. The fitting formulae are shown at Supplementary note 1. Kd ratio distributions for Fig. 6 were calculated using a Monte-Carlo approach (Supplementary note 2).
(§3) Supplementary note 1. Curve fitting of fluorescence polarization (FP) measurements.
(§4) To evaluate polarization values from direct and competitive titrations, we used the following fitting formulae in Origin 2018, as detailed below.
(§5) Direct titration curves were fitted according to the following formula: […]
(§6) Where Imin is the minimal anisotropy, Imax is the (asymptotically estimated) maximal intensity. K0 is the starting concentration of the protein, while T0 is the (fixed) concentration of the labelled peptide and Kd is the dissociation constant.
(§7) Competitive titration curves were fitted with a different formula (In addition to those defined above, constants KdT KdB B0 T0 and D0 here refer to the Kd derived from the direct titration, the unknown Kd of the analyte, the labelled peptide concentration, the competitor peptide concentration as well as the protein concentration, respectively).
(§8) The ± sign refers to two different scenarios, depending on the sign of discriminant (KdT > KdB or […]). For unknown analytes, the choice of sign is not arbitrary, as the fitting will not converge unless the appropriate formula is chosen: […]
(§9) Where A, B and C correspond to the following expressions: […]

[2] = target: T2, inactive SHP2 catalytic domain Loopmut (K364E) (Homo sapiens, UniProt Q06124, C459S/K364E); experiment: Fluorescence polarization titrations, SHP2 Loopmut; type: binding; conditions: competitive FP titration vs CF-ppIRS1 100 nM, protein fixed; n = 3 technical replicates
T2 construct: SHP2 K364E (Loopmut); 219-528 + C459S; His6 (N); made in house; host or cells: E. coli BL21 (DE3)
T2 sequence (Q06124 219-528 K364E/C459S): T1 sequence (Q06124 219-528 H426F/C459S) with K146E, F208H
Source text: as §1, §2, §3, §4, §5, §6, §7, §8, §9

CSCC[C@H](NC(=O)[C@H](Cc1ccc(OP(=O)(O)O)cc1)NC(=O)[C@H](CC(=O)O)NC(=O)[C@H](CO)NC(=O)[C@H](Cc1c[nH]cn1)NC(=O)[C@H](CC(C)C)NC(=O)[C@H](CC(C)C)NC(=O)[C@H](CCCNC(=N)N)NC(=O)[C@H](CO)NC(=O)[C@@H](N)CCCNC(=N)N)C(=O)N[C@@H](CC(N)=O)C(=O)N[C@@H](CCSC)C(=O)N[C@H](C(=O)N1CCC[C@H]1C(=O)N[C@@H](CCCNC(=N)N)C(=O)N[C@@H](CCCNC(=N)N)C(=O)O)[C@@H](C)O [p0CD28]
Kd [1]: 63.7 ± 3.1 µM
Kd [2]: 20.5 ± 1.53 µM

CSCC[C@H](NC(=O)[C@@H]1CCCN1C(=O)[C@H](CCSC)NC(=O)[C@H](Cc1ccc(OP(=O)(O)O)cc1)NC(=O)[C@H](CC(=O)O)NC(=O)CNC(=O)[C@H](CO)NC(=O)CNC(=O)[C@H](CCCCN)NC(=O)[C@H](CCCNC(=N)N)NC(=O)CN)C(=O)N[C@@H](CO)C(=O)N1CCC[C@H]1C(=O)N[C@@H](CCCCN)C(=O)N[C@@H](CO)C(=O)O [p0IRS1]
Kd [1]: 172 ± 4.89 µM
Kd [2]: 23.3 ± 0.9 µM
Kd (competitive titration) [2]: bound stronger

CC[C@H](C)[C@H](NC(=O)[C@H](CC(N)=O)NC(=O)[C@@H](NC(=O)[C@H](Cc1ccc(OP(=O)(O)O)cc1)NC(=O)[C@H](CCC(=O)O)NC(=O)CNC(=O)[C@@H]1CCCN1C(=O)[C@H](CO)NC(=O)[C@H](CCCCN)NC(=O)[C@@H]1CCCN1C(=O)[C@@H](N)CCC(=O)O)C(C)C)C(=O)N[C@@H](CCC(=O)O)C(=O)N[C@@H](Cc1ccccc1)C(=O)O [p0SRev-IRS1]
Kd [1]: 6.05 ± 0.29 µM
Kd [2]: 7.73 ± 1.08 µM

CSCC[C@H](NC(=O)[C@H](Cc1ccc(OP(=O)(O)O)cc1)NC(=O)[C@H](CC(=O)O)NC(=O)[C@H](CO)NC(=O)[C@H](Cc1c[nH]cn1)NC(=O)[C@H](CC(C)C)NC(=O)[C@H](CC(C)C)NC(=O)[C@H](CCCNC(=N)N)NC(=O)[C@H](CO)NC(=O)[C@@H](N)CCCNC(=N)N)C(=O)N[C@@H](CC(N)=O)C(=O)N[C@@H](CCSC)C(=O)N[C@H](C(=O)N1CCC[C@H]1C(=O)N[C@@H](CCCNC(=N)N)C(=O)N[C@@H](CCCNC(=N)N)C(=O)O)[C@@H](C)OP(=O)(O)O [ppCD28]
Kd [1]: 9.96 ± 0.47 µM
Kd [2]: 6.66 ± 0.38 µM

CSCC[C@H](NC(=O)[C@@H]1CCCN1C(=O)[C@H](CCSC)NC(=O)[C@H](Cc1ccc(OP(=O)(O)O)cc1)NC(=O)[C@H](CC(=O)O)NC(=O)CNC(=O)[C@H](CO)NC(=O)CNC(=O)[C@H](CCCCN)NC(=O)[C@H](CCCNC(=N)N)NC(=O)CN)C(=O)N[C@@H](COP(=O)(O)O)C(=O)N1CCC[C@H]1C(=O)N[C@@H](CCCCN)C(=O)N[C@@H](CO)C(=O)O [ppIRS1]
Kd [1]: 3.89 ± 0.19 µM
Kd [2]: 3.01 ± 0.42 µM
Kd (competitive titration) [2]: bound stronger

CC[C@H](C)[C@H](NC(=O)[C@H](CC(N)=O)NC(=O)[C@@H](NC(=O)[C@H](Cc1ccc(OP(=O)(O)O)cc1)NC(=O)[C@H](CCC(=O)O)NC(=O)CNC(=O)[C@@H]1CCCN1C(=O)[C@H](COP(=O)(O)O)NC(=O)[C@H](CCCCN)NC(=O)[C@@H]1CCCN1C(=O)[C@@H](N)CCC(=O)O)C(C)C)C(=O)N[C@@H](CCC(=O)O)C(=O)N[C@@H](Cc1ccccc1)C(=O)O [ppSRev-IRS1]
Kd [1]: 0.54 ± 0.03 µM
Kd [2]: 0.99 ± 0.07 µM
